Measured values as given in patent publication US20160175328A1, “COMPOSITIONS AND TREATMENTS OF HEART FAILURE IN NON-HUMAN MAMMAL ANIMALS” (CEVA SANTE ANIMALE SA, priority 2008, published 2016).
“Also recorded” adds a separate entry of the source.

Tests used:
[1] = tested on: dogs in hyperaldosteronemia; experiment: Model for assessing the anti-aldosterone activity (urinary Na/K after aldosterone injection); type: in vivo, dog; conditions: for Urine flow rate: aldosterone treatment or aldosterone with spironolactone; for Urine Volume / log (Na × 10/K) / K / Na: N 15; for K / Na: urine; for reversal of the effect of aldosterone on the log ([Na+]urinary×10/[K+]urinary): first 6 hours and 12 hours after dosage
Protocol: They have been tattooed in advance for easy identification and situated in stainless steel individual boxes.
A preliminary study was performed in order to determining the ED80 value for the natriuretic effect of aldosterone on its own.
The dogs described above were allocated to different treatment groups (A, B, C, D, and E) and a rest period was left between treatments.
A negative control group A only received the pharmaceutical excipient. The positive control group B only received 3 μg/kg of aldosterone. […] 200 g food was then given immediately after treatment.
The samples were frozen and kept in the dark at approx. −80° C. […] Also, the urine was collected during the time periods ranging from T0-T6h; T6h-T12h and T12h-T24h.
After calibration and count, the quantity of aldosterone present in the sample was thus determined once counted.
The sodium and potassium contents in urines were determined using […]. […] According to this method 500 μL plasma were mixed with ethyl acetate (80/20, V/V) as solvents. […] The compounds and the internal standard (i.e. methyl-testosterone) were separated on a Kromasil C18 column.
A statistical analysis was performed with the STATGRAPHICS Plus version 4.1 software (Manugestics, Inc., Rockville, Md., U.S.A.). The results were presented such as averages±SD; p<0.05 is considered as significant.

[2] = Pharmacokinetic study with 22-14C spironolactone, rat; type: in vivo; conditions: rats, after 4 hour oral administration of spironolactone
[3] = tested on: patients affected by severe heart failure; conditions: 25 mg spironolactone with ACEI, loop diuretics, sometimes digoxin; 284 dead of 822; placebo group 46%; cited from earlier work
[4] = tested on: dogs affected by heart failure; experiment: Clinical studies of spironolactone plus ACEI in dogs affected by heart failure; type: in vivo, dog; conditions: for reduction of the risk of mortality: oral spironolactone 2 mg/kg/day and a ACEI vs placebo and a ACEI; for Survival probability (absence of mortality): over 15 months (14-15 months), Placebo + ACEI 74%
Protocol: Multicentre, randomised, double-blind placebo-controlled clinical studies were conducted. An example of study concerned 221 dogs, the diagnosis of heart failure relying on persisting symptoms of cardiomegaly or cardiomyopathy after a first ACEI treatment. […] The 112-dog placebo group received a placebo in combination with an ACEI (for instance benazepril chlorhydrate in a dose of 0.25 mg/kg/day).
For gauging the effects of the treatment, both groups were examined five times, i.e., on the first day of treatment (D1), then on the 84th day (D84), […], 252nd day (D252) and 336th day (D336). This examination consisted of a clinical examination of the dogs, urine and blood analyses, and a radiograph. Moreover, an echocardiograph was taken on days D1, D168 and D336.
Also, the effects of the treatment were assessed on the symptoms such as cough and mobility, as well as on the prevention of symptoms such as dyspnoea, pulmonary edema, and tolerance to effort.

[5] = Plasmatic potassium (kalemia) measured during the clinical studies; type: in vivo, dog; conditions: for Low and transient hyperkalemia (5.9 to 6.4 mmol/L), cases: group on spironolactone
Protocol: The plasmatic potassium concentrations (mmol/L) were measured during the treatments. […] Only sporadic case of low or moderate hyperkalemia could be observed and these events were transient. Indeed, these hyperkalemia events could only be observed a couple of times during examinations, and some of them were present on day D1, before the beginning of the treatment.

[6] = Pharmacokinetic study with 22-14C spironolactone, monkey; type: in vivo; conditions: monkeys, after 4 hour oral administration of spironolactone
[7] = Pharmacokinetic study with 22-14C spironolactone, dog; type: in vivo; conditions: dogs, after 4 hour oral administration of spironolactone
[8] = group B, dosage 0, aldosterone 3 μg/kg
[9] = group C, spironolactone dosage 0.8, aldosterone 3 μg/kg
[10] = group D, spironolactone dosage 2, aldosterone 3 μg/kg
[11] = group E, spironolactone dosage 8, aldosterone 3 μg/kg

## C[C@]12CCC(=O)C=C1CC[C@@H]1[C@@H]2[C@@H](O)C[C@]2(C=O)[C@@H](C(=O)CO)CC[C@@H]12 [Aldosterone]
[1]; aldosterone on its own
  increase of the urinary levels of K: 25%
  reduction of the elimination of Na: approx. 65%
[1]
  Urine flow rate: not significantly modified
[1]; [8]
  Urine Volume: 115 ± 109 mL
  log (Na × 10/K): 0.70 ± 0.22
  K: 116.6 mmol/L
  Na: 56.3 ± 29.9 mmol/L

## CC(=O)S[C@@H]1CC2=CC(=O)CC[C@]2(C)[C@H]2CC[C@@]3(C)[C@@H](CC[C@@]34CCC(=O)O4)[C@H]12 [Spironolactone, 7α-acetylthio-3-oxo-17α-pregn-4-ene-21,17-carbolactone]
[2]
  plasma radioactivity percentage: 66%
[1]; Canis lupus familiaris, read-out: ED50 (quantity of spironolactone to reach 50% of the maximum response), sigmoid Emax model, log ratio 0 to 6 hours
  ED50: 1.09 mg/kg
[1]
  Urine flow rate: not significantly modified
[1]; corresponded to 100% amplitude, E0 (control group) 0.527
  Emax-E0: 0.5625
[1]; [9]
  Urine Volume: 148 ± 154 mL
  log (Na × 10/K): 0.85 ± 0.24
  K: 91.8 mmol/L
  Na: 67.6 ± 49.3 mmol/L
[1]; [10]
  Urine Volume: 162 ± 103 mL
  log (Na × 10/K): 1.02 ± 0.21
  K: 74.2 mmol/L
  Na: 74.9 ± 40.2 mmol/L
[1]; [11]
  Urine Volume: 190 ± 195 mL
  log (Na × 10/K): 1.14 ± 0.18
  K: 88.9 mmol/L
  Na: 111.1 ± 67.9 mmol/L
[1]; higher dose of spironolactone, 8 mg/kg
  elimination (excretion) of Na: other increases in the elimination of Na were observed; also recorded: Further increases in Na excretion
[1]; log ([Na+]urinary×10/[K+]urinary), Emax model
  Emax (maximum possible effect of spironolactone): 1.089
[1]; sigmoid Emax model, log ratio 0 to 6 hours
  ED50 (quantity of spironolactone to reach 50% of the maximum response): 1.08 ± 0.28 mg/kg
[1]; spironolactone 0.8 mg/kg
  natriuretic responses: no effect on certain dogs
[1]; spironolactone 2 mg/kg
  natriuretic responses: completely reversed
  reversal of the effect of aldosterone on the log ([Na+]urinary×10/[K+]urinary): complete reversal
[1]; spironolactone 8 mg/kg
  reversal of the effect of aldosterone on the log ([Na+]urinary×10/[K+]urinary): complete reversal
[1]; spironolactone 0.8, 2 and 8 mg/kg with aldosterone
  Potassium excretion: spared up to 2 mg per kg but not after that
[1]; spironolactone approx. 2 mg/kg
  E(2mg/kg)−E0: 0.4933
[3]
  dead (mortality) in the spironolactone group: 35%
[4]; 14-15 month, spironolactone 2 mg/kg/day + ACEI, against 25%
  morbidity-mortality rates: 11%
[4]; after 14-15 months, spironolactone 2 mg/kg/day + ACEI, reference group 20%
  mortality rates: 6%
[4]; dogs treated as of stage I of heart failure, approx. 3.5 years, spironolactone 2 mg/kg/day + ACEI, against 53%
  survival probabilities: 100%
[4]; duration of 3 years, spironolactone 2 mg/kg/day + ACEI, reference group 64%
  survival probabilities: 80%
[4]; group of dogs on spironolactone vs control group
  clinical symptoms (cough, mobility, dyspnoea, pulmonary edema, tolerance to effort, syncopes): improved symptoms such as cough and mobility were observed
[4]; over 3 years
  reduction of the risk of mortality: 59%
[4]; over 14-15 months
  reduction of the risk of mortality: 65%
[4]; spironolactone 2 mg/kg/day + ACEI, 109 dogs
  Survival probability (absence of mortality): 91%
[4]; spironolactone 2 mg/kg/day + ACEI, 109 dogs, listed as spironolactone
  Survival probability (absence of mortality): 91%
[4]; over 15 months, spironolactone 2 mg/kg/day + ACEI, 109 dogs, Placebo + ACEI 67%
  “survival” probability (absence of morbi-mortality): 84%
[5]; 2-month clinical study (4 analyses)
  Low and transient hyperkalemia (5.9 to 6.4 mmol/L), cases: 3
[5]; 3-month clinical study (6 analyses)
  Low and transient hyperkalemia (5.9 to 6.4 mmol/L), cases: 5
[5]; 12-month clinical study (5 analyses)
  Low and transient hyperkalemia (5.9 to 6.4 mmol/L), cases: 3
[5]; daily dose of spironolactone of 2 mg/kg/day, dogs
  variation in kalemia: did not cause any variation in kalemia or only low transient variations in kalemia
[5]; spironolactone 2 mg/kg/day and ACEI vs placebo and ACEI
  progression of average plasmatic potassium (kalemia), FIG. 9: stable kalemia
[6]
  plasma radioactivity percentage: 33%
[7]
  plasma radioactivity percentage: 76%
